Where two headings read alike, the source gives them in different places.
Legend:
[1] = test system: patients with severe pulmonary arterial hypertension; assay: Example 2 trial: 6-minute walk test (6MWD); assay type: in vivo, human; conditions: for 6MWD change vs. baseline, mean (SD): study end, patients with both baseline and end of study assessment
Text: Secondary objectives included changes in hemodynamic variables, and in FC.
(§1) Patients (≧18 years) in FC II-IV with idiopathic or familial PAH, or PAH associated with systemic sclerosis or congenital heart disease (WHO group I) and PVR>300 dynes·sec·cm^−5 were eligible. Patients were on stable PAH medication(s) for >3 months before enrolment. Females of child-bearing potential used double-barrier contraception.
(§2) The primary efficacy outcome was the between-group difference in the 6MW distance (6MWD) at baseline and at 6 months. Complete hemodynamic parameters were assessed with standard techniques. FC was classified according to the WHO modification of the NYHA criteria for pulmonary hypertension.
(§3) Analyses were conducted within the intention-to-treat (ITT) population, which consisted of all patients who received at least one dose of study medication. Dropouts were excluded from the analysis The primary efficacy analysis (6MWD) was performed using analysis of covariance (ANCOVA) with baseline value as a covariate. ANCOVAs were also used to assess between-group differences in pulmonary hemodynamics and blood gases. Missing data were not imputed so only subjects with assessment both at baseline and post-treatment were included in the ANCOVA analysis. FC was compared using Fisher's test.

[2] = test system: patients with severe pulmonary arterial hypertension; assay: Example 2 trial: blood gases (oxygen saturation); assay type: in vivo, human
Protocol: as §3

[3] = test system: patients with severe pulmonary arterial hypertension; assay: Example 2 trial: pulmonary hemodynamics; assay type: in vivo, human
Protocol: as §1, §2, §3

[4] = test system: patients with severe pulmonary arterial hypertension
[5] = end of study, with imatinib treatment

Compound: Cc1ccc(NC(=O)c2ccc(CN3CCN(C)CC3)cc2)cc1Nc1nccc(-c2cccnc2)n1 [imatinib]
- 6MWD treatment difference imatinib vs. placebo ([1]; ANCOVA of ITT population, p=0.21): 21.7 m
- 6MWD change vs. baseline, mean (SD) [1]: +22±63 m
- 6MWD change vs. baseline, mean (SD) ([1]; listed as Imatinib): 22 (63) m
- Systemic arterial oxygen saturation, mean treatment difference vs. placebo ([2]; 95% CI 0.5, 4.3): 2.4%
- Mixed venous oxygen saturation, mean treatment difference vs. placebo ([2]; 95% CI 2.1, 11.9): 7.0%
- Mixed venous oxygen saturation ([2]; baseline): 58±10%
- Systemic arterial oxygen saturation ([2]; baseline): 88±9%
- Mixed venous oxygen saturation [2, 5]: 65±7%
- Systemic arterial oxygen saturation [2, 5]: 93±5%
- PAPm, imatinib vs. placebo ([3]; 6 months, result in words): no significant difference
- Cardiac output (CO) mean treatment difference vs. placebo ([3]; 6 months, 95% CI 0.10, 1.26, p=0.02): 0.68 L/min
- PVR mean treatment difference vs. placebo ([3]; 6 months, 95% CI −383.7, −77.8, p=0.004): −230.7 dynes
- Change between baseline and study end for PAPm, CO, PVR or 6MWD ([3]; post-hoc subgroup, baseline PVR<1,000 dynes·sec·cm^−5): no major differences
- Change between baseline and study end for PAPm, CO, PVR and 6MWD compared with placebo ([3]; post-hoc subgroup, baseline PVR≧1,000 dynes·sec·cm^−5): substantial improvement
- Haemoglobin level (±SD) ([4]; after the fall with imatinib): 128 ± 16 g/L
- Haemoglobin level (±SD) ([4]; before the fall (start value)): 151 ± 14 g/L
- Deaths in group ([4]; during 6 month study): three
- AE headache, number of patients ([4]; imatinib group): 10
- AE headache, percent of patients ([4]; imatinib group): 35.7%
- AE nausea, percent of patients ([4]; imatinib group): 50%
- AE peripheral edema, number of patients ([4]; imatinib group): 7
- AE peripheral edema, percent of patients ([4]; imatinib group): 25.0%
- Patients reporting AEs of mild intensity, number ([4]; imatinib group): 21
- Patients reporting AEs of mild intensity, percent ([4]; imatinib group): 75%
- Patients reporting AEs of moderate intensity, number ([4]; imatinib group): 20
- Patients reporting AEs of moderate intensity, percent ([4]; imatinib group): 71%
- Patients reporting AEs of severe intensity, number ([4]; imatinib group): 9
- Patients reporting AEs of severe intensity, percent ([4]; imatinib group): 32%
- Patients with rupture of the pulmonary artery (fatal) ([4]; imatinib group): One
- Serious AEs (SAEs), number of recipients ([4]; imatinib group): 11
- Serious AEs (SAEs), percent of recipients ([4]; imatinib group): 39%
- AE nausea, number of patients ([4]; imatinib group N = 28): 14
- Safety and tolerability in patients with PAH ([4]; over 6 months, result in words): safe and well tolerated
- Changes over time in other laboratory variables (white blood cell count, platelet count, albumin, liver enzymes, creatinine, electrolytes etc.) ([4]; result in words): no relevant changes

Reference: patent US20110190313A1, “Treatment of Pulmonary Arterial Hypertension” (priority 2008, published 2011)
